The values that follow come from article PMC3479967 (Evidence-based Complementary and Alternative Medicine : eCAM, 2012).

One series deals with T1, UGT2B15 (Homo sapiens, UniProt P54855).
T1 sequence (P54855 24-530): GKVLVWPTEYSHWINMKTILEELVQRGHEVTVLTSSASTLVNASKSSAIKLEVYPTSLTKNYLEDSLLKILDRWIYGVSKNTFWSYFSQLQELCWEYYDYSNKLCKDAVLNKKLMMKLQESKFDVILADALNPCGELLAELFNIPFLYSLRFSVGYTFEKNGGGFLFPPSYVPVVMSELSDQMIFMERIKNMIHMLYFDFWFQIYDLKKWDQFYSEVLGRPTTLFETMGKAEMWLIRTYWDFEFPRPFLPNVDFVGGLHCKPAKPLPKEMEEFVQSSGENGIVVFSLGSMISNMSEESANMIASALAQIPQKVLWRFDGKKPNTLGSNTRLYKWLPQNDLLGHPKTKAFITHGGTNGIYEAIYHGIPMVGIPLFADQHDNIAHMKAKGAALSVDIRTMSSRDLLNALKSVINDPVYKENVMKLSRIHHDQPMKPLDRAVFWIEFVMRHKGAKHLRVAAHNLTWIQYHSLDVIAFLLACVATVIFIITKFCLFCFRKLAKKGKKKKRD
Description: Inhibition of recombinant UGT2B15 activity (4-MU glucuronidation). As to the method: (§1) A panel of recombinant human UGT supersomes (UGT1A1, UGT1A3, UGT1A4, UGT1A6, UGT1A7, UGT1A8, UGT1A9, UGT1A10, UGT2B4, UGT2B7, UGT2B15, and UGT2B17) expressed in baculovirus-infected insect cells were purchased from BD Gentest Corp. (Woburn, MA, USA).
(§2) 4-MU, a nonselective substrate of UGTs, was used as probe substrate for all UGTs except UGT1A4. Incubations with each individual enzyme were conducted using conditions previously described. There was a 5 min preincubation step at 37°C before the reaction was started by addition of UDPGA. The incubation mixtures were then centrifuged at 20,500 ×g for 15 min to obtain the supernatant. Aliquots (20 μL) were then analyzed by HPLC. The HPLC system (SHIMADZU, Kyoto, Japan) consisted of an SCL-10A system controller, two LC-10AT pumps, a SIL-10A auto injector, and a SPD-10AVP UV detector. Chromatographic separation was achieved using a Kromasil ODS column (4.6 × 150 mm I.D., 5 μm particle size) at a flow rate of 1 mL/min and UV detection at 316 nm. The mobile phase consisted of 10 mM KH2PO4, pH 2.7 (A) and acetonitrile (B). The following gradient was applied at a flow rate of 1 mL/min: 0–4 min 80% A and 20% B, 4.1–8 min 50% A and 50% B, 8.1–12 min, 30% A and 70% B. All experiments were performed in two independent experiments in duplicate.
(§3) A typical incubation mixture contained recombinant human UGTs, 5 mM MgCl2, 5 mM UDPGA, 50 μg/mg protein alamethicin, 50 mM Tris-HCl buffer (pH 7.4), and various probe substrates of UGTs in the absence or presence of different concentrations of inhibitors. […] The final concentration of DMSO in the incubation system was 1% (v/v). […]
(§4) Inhibition data from experiments were graphically represented by Dixon plots. K i values were calculated by nonlinear regression using the equations for competitive inhibition (1), noncompetitive inhibition (2), or mixed inhibition (3), [22] […] The type of inhibition was determined from the enzyme inhibition models. Goodness of fit to kinetic and inhibition models was assessed from the F statistic, r ^2 values, parameter standard error estimates, and 95% confidence intervals. […]

On the set-up of series [1]: method as in PMID 17632044. Conditions: after a single oral administration of Epimedium pubescens decoction; cited from earlier work.
A further series has as its target T2, UGT2B17 (Homo sapiens, UniProt O75795).
T2 sequence (O75795 24-530): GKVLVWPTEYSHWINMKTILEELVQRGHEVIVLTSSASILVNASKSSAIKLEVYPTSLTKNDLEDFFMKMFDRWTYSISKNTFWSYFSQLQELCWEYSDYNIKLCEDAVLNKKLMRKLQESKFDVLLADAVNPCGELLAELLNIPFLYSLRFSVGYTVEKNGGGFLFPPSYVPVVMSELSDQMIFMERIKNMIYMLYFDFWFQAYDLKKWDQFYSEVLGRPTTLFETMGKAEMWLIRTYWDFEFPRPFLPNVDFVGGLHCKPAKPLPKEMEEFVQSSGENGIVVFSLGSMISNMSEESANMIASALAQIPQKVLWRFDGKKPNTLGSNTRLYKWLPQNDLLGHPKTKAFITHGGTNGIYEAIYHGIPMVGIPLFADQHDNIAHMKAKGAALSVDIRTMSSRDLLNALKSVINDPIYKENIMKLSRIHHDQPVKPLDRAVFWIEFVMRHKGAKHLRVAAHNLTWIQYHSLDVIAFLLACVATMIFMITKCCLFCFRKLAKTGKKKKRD
The experiment in a line: Inhibition of recombinant UGT2B17 activity (4-MU glucuronidation). How it is done:
as §1, §2, §3, §4

The next series deals with CYPs. The arrangement: method as in PMID 16476124. Conditions: previous studies; cited from earlier work.
For series [2] the following is noted: cited from earlier work.
The conditions of series [3]: reported value, as fraction; cited from earlier work.

As to `COc1ccc(-c2oc3c(CC=C(C)C)c(O)cc(O)c3c(=O)c2O)cc1` [Icaritin], the IC50 at UGT2B15 and at UGT2B17 was over 100 µM each time. In series [1], the “Reported icaritin concentration in blood” value is 1.5 nM.
With `COc1ccc(-c2oc3c(CC=C(C)C)c(O[C@@H]4O[C@H](CO)[C@@H](O)[C@H](O)[C@H]4O)cc(O)c3c(=O)c2O[C@@H]2O[C@@H](C)[C@H](O)[C@@H](O)[C@H]2O)cc1` [Icariin], the IC50 on UGT2B15 and on UGT2B17 was over 100 µM in each case. For the same compound, the “Inhibitory effect on CYPs activities” value in the series with CYPs is “no inhibitory effects”. Further, the “Fraction of icariin transformed into its intestinal metabolites in the intestinal lumen” value in series [2] was “about 70%”. Besides, the Oral bioavailability in series [3] was 0.12.
`COc1ccc(-c2oc3c(CC=C(C)C)c(O[C@@H]4O[C@H](CO)[C@@H](O)[C@H](O)[C@H]4O)cc(O)c3c(=O)c2O)cc1` [Icariside I]: the IC50 at UGT2B15 and at UGT2B17 was over 100 µM in each case.

Usually IC50 stands for the concentration that gives 50% inhibition.
